{"source": "patent US12653862B2", "about": "“Anti-senescence compounds and uses thereof” (CLEARA BIOTECH B.V., priority 2020, dated 2026)", "key": {"[1]": {"test_system": "triple negative breast cancer lines", "assay": "MTS cell viability in human breast cancer cell lines", "format": "cell-based", "settings": "increasing concentrations, 2 days"}, "[2]": {"test_system": "CRC29 colorectal cancer organoid line", "assay": "Bioluminescence of luciferase-expressing CRC29 transplanted in the caecum of immunodeficient mice", "format": "in vivo", "settings": "3 doses, imaged two days after last dose, vs PBS", "protocol": "(§1) Mouse experiments were performed after approval from the Dutch animal ethics committee. For these experiments male NOD.Cg-Prkdc^scid Il2rg^tmlWjl/SzJ/J mice (Charles River) were employed. Human CRC29 colorectal cancer organoids containing firefly luciferase were implanted into the caecum, resulting in the formation of a primary tumor at this site. The implantation was performed under ketamine and dexmedetomidine anaesthesia. In addition, the animals received carpofen 30 min before surgery and the day after. 14 days after transplantation, the mice were sedated using isoflurane and imaged under the BioSpace Imager. Subsequently, The animals were treated with either PBS or with ′5-Fluorouracil (5-FU) at a dose of 50 mg/kg via i.p. injection. The first dose of CL04183 (2.5 mg/kg) was administered via i.v. injection 1 week after 5-FU treatment and this treatment was repeated 2 and 4 days later. 4 weeks after transplantation, the mice were imaged again to determine treatment effect and subsequently sacrificed. All organs were harvested and imaged under the BioSpace Imager again and the luciferase signal was quantified using the M3 vision software."}, "[3]": {"assay": "Grey hair in naturally aged mice", "format": "in vivo", "settings": "24-month old C57BL/6J mice, 3 doses i.v., 4 weeks after first treatment, vs PBS", "text": "24-month old C57BL/6J mice were photographed before receiving 3 doses of either PBS or CL04183 (SEQ ID NO: 55) through i.v. injection. 4 weeks after the first treatment the mice were photographed again."}, "[4]": {"test_system": "RPE1 cells", "assay": "Senescent vs ctrl human RPE1 cells", "format": "cell-based", "settings": "vs FOXO4-DRI (CL03001) within one experiment", "protocol": "Human IMR90, WI38 and RPE cells were grown in Dulbecco's Modified Eagle's Medium (DMEM; Lonza) containing 10% FCS and 1% pen/strep at 37° C. with 3.0% 02 and 5.0% CO2. To induce senescence, cells were irradiated with 10Gy ionizing radiation (Gammacell 1000) and were left for a minimum of 10 days to become senescent.\nTo perform viability and apoptosis assays, cells were split into 96-well plates and treated with peptides 2 days later. Non-senescent and cancer cells were plated 1500 cells/well, while senescent cells were plated at 8.000 cells/well."}, "[5]": {"test_system": "CRC29 colorectal cancer organoid line", "assay": "CRC29 metastasis in liver and lung, human nucleoli staining", "format": "in vivo, mice", "settings": "3 doses, vs PBS", "protocol": "as §1\nLiver and lung paraffin sections were rehydrated in decreasing concentrations of ethanol before being washed in TBS and boiled for 20 minutes in 10 mM sodium citrate buffer (PH6) for antigen unmasking. […]"}, "[6]": {"test_system": "CRC29 lung metastases", "assay": "TUNEL assay on CRC29 lung metastases", "format": "in vivo, mice", "settings": "vs PBS", "protocol": "as §1\nA TUNEL assay was performed on lung metastases to determine apoptosis induction after treatment. […] Images were acquired using a LSM880 confocal microscope (Zeiss) and the percentage of TUNEL-positive cells was analysed using FIJI."}, "[7]": {"test_system": "CRC29 colorectal cancer organoids", "assay": "Apoptosis and viability in patient-derived colorectal cancer organoid line CRC29", "format": "cell-based, Human", "protocol": "(§2) Organoids were grown at 37° C. and 5% CO2 in a humidified incubator. All organoids were cultured in matrigel (Corning) droplets in advanced DMEM/F12 (Lonza) supplemented with 1% glutamax, 1% Penicillin/Streptomycin, 1% (10 mM) HEPES, 10% Noggin conditioned medium, 2% B-27 (50×; (Thermo/Life Technologies), N-acetylcysteine ((Sigma-Aldrich, 1.25 mM)), A83-01 (Tocris, 500 nM) and SB203580 (Invitrogen/Life Technologies, 3 μM). To perform viability and apoptosis assays, the organoids were passaged through resuspension in ice-cold medium, followed by centrifugation in 15 ml tubes at 4° C. The resulting pellet was trypsinized for 5 minutes at 37° C. to obtain single cells and subsequently washed twice with advanced DMEM/F12 media. These cells were then resuspended in Matrigel and plated in 96-well plates in 5 ul droplets. 100 ul fresh medium was added to the wells 15 minutes later. Peptide and chemotherapy treatment was added to the organoids 2 days after plating.\nA Live/dead assay was performed on both larger organoids 3 days after peptide and/or chemotherapy treatment, or on organoids that were treated as single cells and allowed to grow out for 2 weeks before the assay was performed. […] The organoids were then imaged on a Zeiss Cell Observer microscope and the signal was quantified using FIJI. […]"}, "[8]": {"assay": "Peptide stability in solution", "format": "physicochemical", "protocol": "Both peptides were dissolved in H2O and kept at room temperature. The peptide concentration was determined for the indicated time points."}, "[9]": {"test_system": "WT colon and tumor progression (TPO) organoids", "assay": "Cell viability of WT colon and tumor progression (TPO) organoids", "format": "cell-based", "settings": "increasing concentrations, measured 5 days later", "protocol": "as §2"}, "[10]": {"test_system": "NRAS mutated and BRAF mutated melanoma", "assay": "Efficacy against melanoma", "format": "cell-based"}}}
{"sequence": "AKIEAAILDAFSQNWRKRRRRQRRKKRG [CL04183]", "values": [{"measurement": "sensitivity of breast cancer cell lines (cell viability, MTS)", "setting": "[1]", "result": "correlating with CL04183 (SEQ ID NO: 55) sensitivity"}, {"measurement": "luciferase-expressing colorectal cancer cells (bioluminescence)", "setting": "[2]", "result": "reduces luciferase-expressing colorectal cancer cells in vivo"}, {"measurement": "grey hair", "setting": "[3]", "result": "reduces grey hair"}, {"measurement": "selectivity and potency in senescent vs ctrl cells", "setting": "[4]", "result": "superior selectivity and potency"}, {"measurement": "colorectal cancer metastasis in liver and lung", "setting": "[5]", "result": "reduces colorectal cancer metastasis in liver and lung"}, {"measurement": "apoptosis in metastatic cancer cells (TUNEL positive cancer cells)", "setting": "[6]", "result": "induces apoptosis in metastatic cancer cells in vivo"}, {"measurement": "apoptosis induction", "setting": "[7]", "result": "potently induces apoptosis"}, {"measurement": "stability in solution", "setting": "[8]", "result": "superior stability"}, {"measurement": "cell viability, sensitivity of organoids with colorectal cancer associated mutations", "setting": "[9]", "result": "sensitizes to FOXO4-based peptides, dependent on p53"}, {"measurement": "efficacy against melanoma", "setting": "[10]", "result": "efficacy against NRAS mutated and BRAF mutated melanoma"}]}
